Experimental data published in US11912716B2 (priority 2018, dated 2024).

Assays:
[1] = test system: morphine-induced conditioned place preference behavior in rats; assay: morphine-induced conditioned place preference behavior, single oral administration before test (Example 12); format: in vivo, SD rats; details: 70 mg/kg single oral dose 60 minutes before test, morphine 10 mg/kg s.c. for four days
morphine-dependent mice = assay: morphine-induced physical dependence, withdrawal jumping (Example 15); format: in vivo, Kunming mice; details: 1 g/kg, 3 hours before naloxone
[2] = test system: formation of conditioned place preference induced by morphine in rats; assay: formation of conditioned place preference induced by morphine, concomitant administration (Example 13); format: in vivo, SD rats; details: 70 mg/kg oral 30 minutes before each morphine injection (10 mg/kg s.c.), four consecutive days
[3] = test system: morphine-dependent animals; assay: naloxone-precipitated morphine-withdrawal jumping (Example 10); format: in vivo, Kunming mice
SD rats = assay: addictive potential: induction of conditioned place preference (Example 14); details: for CPP SCORE: morphine 10 mg/kg s.c. daily for four consecutive days, hydrochloride
[4] = 0.125 g/kg intragastric, 1 hour after administration
[5] = 0.25 g/kg intragastric, 1 hour after administration
[6] = 0.5 g/kg intragastric, 1 hour after administration
[7] = 0.5 g/kg intragastric, 3 hours after administration

Structure (SMILES): CC(=O)O[C@H]1[C@H](OC(C)=O)[C@H]([C@@](C)(O)CC[C@@H]2OC(C)(C)[C@H]3CC[C@]2(C)O3)[C@@]2(C)CC[C@@H]3OC(C)(C)[C@H](OC(C)=O)CC[C@@]3(C)[C@H]12 [3,12,13-triacetyl limaxol A, (3R,5aS,7aS,8R,9R,10R,10aR,10bS)-dodecahydro-8-((S)-2-hydroxy-4-((1S,2S,5R)-1,4,4-trimethyl-3,8-dioxa-bicyclo[3.2.1]octan-2-yl)butan-2-yl)-4,4,7a,10b-tetramethyl-1H-indeno[5,4-b]oxepine-3,9,10-triol triacetate]
- CPP SCORE ([1]; listed as Triacetyl limaxol A): 318.5 ± 90.9 n = 7 s
- CPP SCORE ([1]; listed as triacetyl limaxol A): 318.5 ± 90.9 s
- Inhibition of morphine-withdrawal jumping (morphine-dependent mice): 43.13%
- Jumping times (Mean ± SEM) (morphine-dependent mice): 21.7 ± 6.9
- CPP SCORE ([2]; listed as Triacetyl limaxol A): 223.8 ± 34.0 n = 6 s
- CPP SCORE ([2]; listed as triacetyl limaxol A): 318.5 ± 90.9 s
- % Inhibition of morphine-withdrawal jumping [3, 4]: 3.0 ± 12.2%
- Jumping times (Mean ± SEM) [3, 4]: 33.5 ± 4.1
- % Inhibition of morphine-withdrawal jumping [3, 5]: 21.1 ± 28.2%
- Jumping times (Mean ± SEM) [3, 5]: 27.5 ± 9.4
- % Inhibition of morphine-withdrawal jumping [3, 6]: 48.2 ± 7.5%
- Jumping times (Mean ± SEM) [3, 6]: 18.5 ± 2.4
- % Inhibition of morphine-withdrawal jumping [3, 7]: 45.0 ± 17.0%
- Jumping times (Mean ± SEM) [3, 7]: 16.7 ± 4.9

Structure (SMILES): CC(=O)O[C@H]1[C@H](OC(C)=O)[C@H]([C@@](C)(O)CC[C@]2(C)OC(C)(C)[C@H]3CC[C@]2(C)O3)[C@@]2(C)CC[C@@H]3OC(C)(C)[C@H](O)CC[C@@]3(C)[C@H]12 [limaxol A, reference compound]
- Inhibition of morphine-withdrawal jumping (morphine-dependent mice): 21.26%
- Jumping times (Mean ± SEM) (morphine-dependent mice): 30.0 ± 9.7

Structure (SMILES): CCC(=O)C(CC(C)N(C)C)(c1ccccc1)c1ccccc1 (stereo not drawn) [methadone, reference compound]
- Jumping times (Mean ± SEM) ([3]; methadone 20 mg/kg intragastric, 1 hour before naloxone, jumpings within 30 minutes): 33.8 ± 3.3
- withdrawal jumping symptoms versus morphine model group (in words) ([3]; methadone 20 mg/kg, 1 hour after administration): significantly reduced

Structure (SMILES): CN1CC[C@]23c4c5ccc(O)c4O[C@H]2[C@@H](O)C=C[C@H]3[C@H]1C5.Cl [morphine, morphine hydrochloride]
- induction of conditioned place preference (in words) (SD rats; morphine 10 mg/kg s.c.): induced conditioned place preference behavior
- CPP SCORE (SD rats): 208.3 ± 16.2 s
- CPP SCORE (SD rats; listed as Morphine): 208.3 ± 16.2 n = 10 s
